The source of these data is ChEMBL document CHEMBL1201862, “PubChem BioAssay data set” (2004).

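Interpolation was linear, between the two tested concentrations surrounding the appropriate level; five concentrations were tested over 48 hours in 96-well plates. GI50 is the concentration that inhibits growth by half.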 The source made the active and inactive calls. No stated cut-off is given here; in the data, active = GI50 up to about 1.1 µM and inactive = higher. Some results are limits rather than exact numbers.

Among the test systems are COLO 205; HCC 2998; NCI-H23; K562; NCI-H460; HCT-116; HCT-15; M14; 786-0; HOP-92; KM-20L2; SK-MEL-28; SF-295; SK-MEL-5; SF-539; OVCAR-5; KM12; Malme-3M; BT-549; MDA-MB-231.
Holding throughout (experiment): growth of human tumour cells (NCI), 48 h

On to `COc1ccc2oc(C(=O)O)c3c2c1CCC3`, for which the GI50 in the experiment with COLO 205, in the experiment on HCC 2998, in the experiment on NCI-H23, in the experiment with K562, in the experiment on NCI-H460 and in the experiment with HCT-116 was > 100 µM (inactive) throughout. Besides, the GI50 in the experiment with HCT-15 is greater than 100 µM; in the experiment with M14, > 100 µM (inactive); in the experiment with 786-0, > 100 µM (inactive); with HOP-92, 42.5 µM (inactive); with KM-20L2 it was > 100 µM (inactive); in the experiment on SK-MEL-28, > 100 µM (inactive). The GI50 with SF-295, with SK-MEL-5 and with SF-539 was > 100 µM (inactive) in each case.

For `O=C(O)CCSC(=O)Nc1ccccc1F`, the GI50 with OVCAR-5, in the experiment with COLO 205, with HCC 2998, in the experiment with NCI-H23, with K562 and in the experiment on NCI-H460 was > 100 µM (inactive) throughout. Further, the GI50 is > 100 µM (inactive) with HCT-116; greater than 100 µM with HCT-15; > 100 µM (inactive) in the experiment on M14; > 100 µM (inactive) in the experiment with 786-0; > 100 µM (inactive) in the experiment on KM-20L2; > 100 µM (inactive) with KM12. Moreover, the GI50 in the experiment on SK-MEL-28 and in the experiment with SF-539 was > 100 µM (inactive) each time.

Consider `C/C(=N\NS(=O)(=O)c1c(C)cc(C)cc1C)c1ccc[n+]([O-])n1`, for which the GI50 in the experiment with OVCAR-5 is 26.8 µM (inactive); in the experiment on HCC 2998 it was 33 µM (inactive); with NCI-H23 it was 15.5 µM (inactive); in the experiment with K562 it was 4.44 µM (inactive); in the experiment with NCI-H460, 30.7 µM (inactive); in the experiment with HCT-116, 13.1 µM (inactive). Moreover, the GI50 in the experiment with HCT-15 was 14.7 µM; in the experiment with M14, 7.64 µM (inactive); with 786-0, 14.3 µM (inactive); in the experiment on HOP-92, 9.95 µM (inactive); in the experiment on KM-20L2, 22.9 µM (inactive); with KM12, 38.5 µM (inactive). Also, the GI50 in the experiment on SK-MEL-28 was 13.3 µM (inactive); in the experiment with SF-295, 62.2 µM (inactive); in the experiment on SK-MEL-5 it was 41.9 µM (inactive); with SF-539, 13.6 µM (inactive).

On to `CC(C)(C)[C@H]1CC[C@@](O)(c2ccccc2)CC1.CC(C)(C)[C@H]1CC[C@](O)(c2ccccc2)CC1`, for which the GI50 was 44.7 µM (inactive) with OVCAR-5; 17.7 µM (inactive) in the experiment with COLO 205; 26.5 µM (inactive) in the experiment with HCC 2998; 30.1 µM (inactive) in the experiment on NCI-H23; 15.2 µM (inactive) in the experiment with K562; 27 µM (inactive) in the experiment with NCI-H460. Besides, the GI50 is 22.2 µM (inactive) in the experiment on HCT-116; 23.9 µM with HCT-15; 18.2 µM (inactive) in the experiment with M14; 18 µM (inactive) in the experiment with 786-0; 16.1 µM (inactive) with KM-20L2; 22.8 µM (inactive) in the experiment on KM12. In addition, the GI50 in the experiment on SK-MEL-28 was 22.5 µM (inactive); in the experiment with Malme-3M it was 29.9 µM (inactive); in the experiment with SF-295 it was 36.4 µM (inactive); with SK-MEL-5, 14.8 µM (inactive); in the experiment with SF-539, 18.1 µM (inactive).

As for `NC(=O)CCC(Nc1c2ccccc2[n+]([O-])c2ccccc12)C(=O)O` (stereo not given), the GI50 was > 100 µM (inactive) in the experiment with OVCAR-5; 49.1 µM (inactive) in the experiment on COLO 205; > 100 µM (inactive) in the experiment with HCC 2998; 35.6 µM (inactive) in the experiment on NCI-H23; 37.8 µM (inactive) with K562; 80 µM (inactive) in the experiment on NCI-H460. In addition, the GI50 was 38.3 µM (inactive) in the experiment with HCT-116; 46.7 µM in the experiment with HCT-15; > 100 µM (inactive) in the experiment with M14; > 100 µM (inactive) in the experiment on 786-0; > 100 µM (inactive) in the experiment with KM-20L2; > 100 µM (inactive) with KM12. Moreover, the GI50 in the experiment with SK-MEL-28 was 26.4 µM (inactive); in the experiment on Malme-3M it was 32.7 µM (inactive); in the experiment on SF-295, > 100 µM (inactive); with SK-MEL-5 it was 32 µM (inactive).

In the case of `CC(C)(C)C1CCN(C(=O)c2ccccc2)CC1`, the GI50 in the experiment on OVCAR-5 was > 100 µM (inactive); in the experiment with COLO 205, > 100 µM (inactive); with HCC 2998, > 100 µM (inactive); in the experiment with NCI-H23 it was > 100 µM (inactive); with K562, 63.4 µM (inactive); in the experiment with NCI-H460, > 100 µM (inactive). Moreover, the GI50 with HCT-116 was 53.8 µM (inactive); in the experiment with HCT-15, 57.5 µM; with M14, > 100 µM (inactive); in the experiment with 786-0, > 100 µM (inactive); in the experiment with KM-20L2, > 100 µM (inactive); with KM12 it was > 100 µM (inactive). Moreover, the GI50 is 43.6 µM (inactive) in the experiment with Malme-3M, > 100 µM (inactive) with SF-295, 28.8 µM (inactive) with SK-MEL-5 and > 100 µM (inactive) with SF-539.

`O=c1/c(=C/c2cccc([N+](=O)[O-])c2)sc2nc3ccccc3n12`: the GI50 with OVCAR-5 is > 100 µM (inactive); with HCC 2998, 50.8 µM (inactive); in the experiment on NCI-H23, > 100 µM (inactive); in the experiment with K562, > 100 µM (inactive); with NCI-H460 it was > 100 µM (inactive); with HCT-116, 37.3 µM (inactive). In addition, the GI50 with HCT-15 was greater than 100 µM; with M14, 55.1 µM (inactive); in the experiment on 786-0, > 100 µM (inactive); in the experiment with HOP-92, > 10 µM (inactive); in the experiment with KM-20L2, > 10 µM (inactive); with KM12, > 100 µM (inactive). Moreover, the GI50 was 35.6 µM (inactive) in the experiment with SK-MEL-28, > 100 µM (inactive) in the experiment with Malme-3M, > 10 µM (inactive) in the experiment on SF-295 and > 10 µM (inactive) in the experiment on SK-MEL-5.

For `CCOP(=O)(OCC)C(F)(F)Cc1cnc(C)c2c1COC(C)(C)O2`, the GI50 with OVCAR-5, with COLO 205, in the experiment on HCC 2998, in the experiment with BT-549, in the experiment on NCI-H23 and in the experiment with K562 was > 10 µM (inactive) throughout. Moreover, the GI50 was > 10 µM (inactive) in the experiment on NCI-H460; > 10 µM (inactive) in the experiment with HCT-116; greater than 10 µM in the experiment on HCT-15; > 10 µM (inactive) with M14; > 10 µM (inactive) with 786-0; > 10 µM (inactive) with HOP-92. The GI50 in the experiment on MDA-MB-231, in the experiment with KM12, in the experiment on SK-MEL-28, in the experiment on Malme-3M, with SF-295 and with SK-MEL-5 was > 10 µM (inactive) in each case. In the experiment with SF-539, the GI50 is > 10 µM (inactive).

With `CCOP(=O)(OCC)C(C#N)Cc1ccco1` (stereo not given), the GI50 with OVCAR-5, with COLO 205, with HCC 2998, in the experiment with BT-549, in the experiment with NCI-H23 and in the experiment on K562 was > 10 µM (inactive) in each case. Moreover, the GI50 with NCI-H460 is > 10 µM (inactive); with HCT-116 it was > 10 µM (inactive); in the experiment with HCT-15 it was greater than 10 µM; with M14 it was > 10 µM (inactive); with 786-0, > 10 µM (inactive); in the experiment with HOP-92, > 10 µM (inactive). In addition, the GI50 with MDA-MB-231, in the experiment with KM12, in the experiment on SK-MEL-28, in the experiment on Malme-3M, with SF-295 and with SK-MEL-5 was > 10 µM (inactive) in each case. For the same molecule, in the experiment on SF-539, the GI50 was > 10 µM (inactive).

On to `COc1ccc(C(CC2(c3ccc(OC)cc3)SCCCS2)NC(C)=O)cc1` (stereo not given), for which the GI50 in the experiment on OVCAR-5 was > 100 µM (inactive); with COLO 205, 25.1 µM (inactive); in the experiment with HCC 2998, 42.6 µM (inactive); in the experiment on BT-549, 41.9 µM (inactive); with NCI-H23, 29.4 µM (inactive); in the experiment on K562 it was 35.4 µM (inactive). The GI50 with NCI-H460 is 40.7 µM (inactive); in the experiment with HCT-116 it was 56.1 µM (inactive); with HCT-15 it was 37 µM; with M14, 94 µM (inactive); in the experiment on 786-0, > 100 µM (inactive); with HOP-92 it was 83.6 µM (inactive). Also, the GI50 in the experiment on MDA-MB-231 is > 100 µM (inactive); in the experiment on KM12, 45.4 µM (inactive); in the experiment with SK-MEL-28 it was > 100 µM (inactive); in the experiment on Malme-3M, 86.9 µM (inactive); in the experiment with SF-295 it was 33.8 µM (inactive); in the experiment on SK-MEL-5 it was 18.4 µM (inactive). For the same molecule, the GI50 with SF-539 is > 100 µM (inactive).

With `CCc1nc(N)nc(N)c1-c1ccc2nn(-c3ccccc3)[n+]([O-])c2c1`, the GI50 was 14 µM (inactive) with OVCAR-5; 8.22 µM (inactive) in the experiment on COLO 205; 4.59 µM (inactive) in the experiment with HCC 2998; 11.9 µM (inactive) with BT-549; 1.87 µM (inactive) in the experiment on NCI-H23; 0.203 µM (active) in the experiment with K562. Moreover, the GI50 in the experiment with NCI-H460 was 0.361 µM (active); in the experiment with HCT-116, 0.396 µM (active); in the experiment with HCT-15, 0.697 µM; in the experiment with M14, 1.33 µM (inactive); in the experiment on 786-0 it was 1.16 µM (inactive); in the experiment on HOP-92 it was 8.91 µM (inactive). The GI50 in the experiment with MDA-MB-231 was 11.7 µM (inactive); with KM12 it was 5.45 µM (inactive); in the experiment with SK-MEL-28, 11.8 µM (inactive); in the experiment on Malme-3M, 10.7 µM (inactive); with SF-295 it was 2.4 µM (inactive); in the experiment on SK-MEL-5, 2.61 µM (inactive). Moreover, the GI50 with SF-539 was 3.7 µM (inactive).

For the molecule `O=C(O)c1cc(C(=O)O)cc(N2C(=O)c3ccccc3C2=O)c1`, the GI50 in the experiment on OVCAR-5, in the experiment on COLO 205, in the experiment on HCC 2998, in the experiment with BT-549, in the experiment on NCI-H23 and in the experiment on K562 was > 100 µM (inactive) each time. Moreover, the GI50 with NCI-H460 was > 100 µM (inactive); in the experiment with HCT-116 it was > 100 µM (inactive); with HCT-15 it was greater than 100 µM; with M14, > 100 µM (inactive); in the experiment on 786-0 it was > 100 µM (inactive); in the experiment on HOP-92, > 100 µM (inactive). In addition, the GI50 in the experiment with MDA-MB-231, with KM12, in the experiment with SK-MEL-28, in the experiment on Malme-3M, in the experiment with SF-295 and with SK-MEL-5 was > 100 µM (inactive) in each case. The GI50 in the experiment on SF-539 is > 100 µM (inactive).
